Laboratory results published in PubChem BioAssay (NCI).
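1) Cells in 96-well plates. 2) Compound, 48 h, 5 concentrations. 3) Linear interpolation between surrounding doses. 4) Unreached endpoint = highest concentration. GI50 is the concentration that inhibits growth by half. TGI is the concentration that stops growth completely.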

Legend:
Assay in all cases: inhibition of tumour cell growth, NCI panel, 48 h
COLO 205 colon = system: COLO 205 colon
EKVX NSCLC = system: EKVX NSCLC
HL-60(TB) leukemia = system: HL-60(TB) leukemia
HOP-92 NSCLC = system: HOP-92 NSCLC
KM12 colon = system: KM12 colon
MOLT-4 leukemia = system: MOLT-4 leukemia
OVCAR-4 ovarian = system: OVCAR-4 ovarian
SF-268 CNS = system: SF-268 CNS
SK-OV-3 ovarian = system: SK-OV-3 ovarian
MDA-MB-231 breast = system: MDA-MB-231 breast

Compound | TGI (COLO 205 colon) [µM] | TGI (EKVX NSCLC) [µM] | TGI (HL-60(TB) leukemia) [µM] | TGI (HOP-92 NSCLC) [µM] | TGI (KM12 colon) [µM] | TGI (MOLT-4 leukemia) [µM] | TGI (OVCAR-4 ovarian) [µM] | TGI (SF-268 CNS) [µM] | TGI (SK-OV-3 ovarian) [µM] | GI50 (COLO 205 colon) [µM] | GI50 (EKVX NSCLC) [µM] | GI50 (HL-60(TB) leukemia) [µM] | GI50 (KM12 colon) [µM] | GI50 (MDA-MB-231 breast) [µM] | TGI (MDA-MB-231 breast) [µM] | GI50 (MOLT-4 leukemia) [µM] | GI50 (OVCAR-4 ovarian) [µM] | GI50 (SF-268 CNS) [µM] | GI50 (SK-OV-3 ovarian) [µM] | GI50 (HOP-92 NSCLC) [µM]
CSC(=Nc1ccc([N+](=O)[O-])cc1C#N)NC(=O)c1ccccc1 | > 100 | > 100 | > 100 | > 100 | > 100 | > 100 | > 100 | > 100 |  |  |  |  |  |  |  |  |  |  |  | 
O=S1(=O)[C@H](c2ccccc2)c2c(-c3ccccc3)sc(-c3ccccc3)c2[C@@H]1c1ccccc1 | > 100 | > 100 | > 100 | > 100 | > 100 | > 100 | > 100 | > 100 | > 100 |  |  |  |  |  |  |  |  |  |  | 
COc1ccc2c(c1)c(-c1ccc(-c3cn(C)c4ccc(OC)cc34)s1)cn2C | > 100 | > 100 | > 100 |  | > 100 | > 100 | > 100 | > 100 | > 100 | > 100 | > 100 | > 100 | > 100 | > 100 | > 100 | > 100 | 90.2 | > 100 | > 100 | 
CCC(=O)N1C(=S)SC[C@H]1C(=O)OC | > 100 | > 100 | > 100 | > 100 | > 100 | > 100 | > 100 | > 100 | > 100 |  |  |  |  |  |  |  |  |  |  | 
CN(c1ccccc1)c1nc(=[N+](C)C)ss1 |  | > 100 | > 100 | > 100 | > 100 |  | > 100 | > 100 | > 100 |  |  |  |  |  |  |  |  |  |  | 
COCCn1c(Nc2ccc(C(=O)NO)cc2)nc2ccccc21 | 7.88 | 21.4 | > 100 |  | 15.1 | > 100 | > 100 | 17.5 | 20.2 | 2.75 | 1.89 | 3.63 | 3.65 | 4.65 | 44.7 | 3.86 | 16.1 | 4.9 | 3.45 | 
CS(=O)(=O)N(CCC#N)c1ccc(/C=C2\N=C(c3ccccc3Cl)OC2=O)cc1 | > 100 | > 100 | > 100 |  | > 100 | > 100 |  | > 100 | > 100 |  |  |  |  |  |  |  |  |  |  | 
[N-]=[N+]=NC1C(Cl)C(=O)NC(=O)N1[C@H]1C[C@H](O)[C@@H](CO)O1 (some centres undefined) | > 100 | > 100 | > 100 | > 100 | > 100 | > 100 | > 100 | > 100 | > 100 |  |  |  |  |  |  |  |  | 94 |  | 
CCOc1ccc2c(c1)[n+]([O-])c(C(N)=O)c(N)[n+]2[O-] | > 100 | > 100 | > 100 | > 100 | > 100 | > 100 | > 100 | > 100 | > 100 |  |  |  |  |  |  |  |  |  |  | 
O=C(c1ccccc1)[C@H]1Nc2ccc(Cl)cc2[C@H]2c3ccccc3O[C@H]21 | 37.4 | 28.6 |  |  | 30.2 | 37.7 | 32.3 | 33.9 |  |  |  |  |  |  |  |  |  |  |  | 
[O-]c1ccccc1C=NCCN=Cc1ccccc1[O-].[O]=[U+2]=[O] | > 85.1 | > 100 | > 84.5 | 48.3 | > 100 | > 100 | 64.1 | 66.5 | 57 | > 51.8 | 61.5 | > 48.4 | 57.1 |  |  | 53.7 | 19 | 25.1 | 24.3 | 22.6
c1ccc2[nH]c(-c3ccc(Nc4nc(N5CCCC5)nc5[nH]ncc45)cc3)nc2c1 | 0.486 | 3.12 | 0.517 | 2.75 |  |  | 2.81 | 2.42 | 4.87 | 0.217 | 1.45 | 0.216 |  |  |  |  | 1.06 | 0.62 | 2.55 | 1.14
O=C1C2C3SC(c4cc5ccccc5cc43)C2C(=O)N1c1ccccc1 (centres undefined) | > 100 | > 100 | > 100 | > 100 | > 100 | > 100 | > 100 | > 100 | > 100 |  |  |  |  |  |  |  |  |  |  | 
O=C1CN=C(c2ccccc2)c2ccncc2N1 | > 100 | > 100 | > 100 | > 100 | 37 | > 100 | > 100 | > 100 | > 100 |  |  |  |  |  |  |  |  |  |  | 
CCOP(=O)(OCC)C(C(=O)OC)C(=O)C(=O)Nc1cccc([N+](=O)[O-])c1 (centres undefined) | > 100 | > 100 | > 100 |  | > 100 | > 100 | > 100 | > 100 | > 100 |  |  |  |  |  |  |  |  |  |  | 
